The EC50 is the concentration that produces a half-maximal response. For orientation: IC50 means the concentration that gives 50% inhibition.

One data set is described as follows: cells. To be noted: Homo sapiens, NCI-H1975, 72 h.
The subject of another data set is HCC827. In words: cells. To be noted: Homo sapiens, HCC827, 72 h.
Data set [1] relates to BaF3. In words: Antiproliferative activity against mouse BaF3 cells harboring EGFR exon 19del mutant incubated for 72 hrs by MTT assay. It counts as functional, cell-based. To be noted: BaF3, 72 h. In general terms: Tetrazolium dyes change colour on reduction, which living cells bring about.
For data set [2], the system named is BaF3. Briefly: cells. To be noted: Mus musculus, BaF3, 72 h.
Data set [3] relates to BaF3. In words: cells. Conditions: Mus musculus, BaF3, 72 h. This is another data set of the same source.
Data set [4] has as its system BaF3. Briefly: cells. To be noted: Mus musculus, BaF3, 72 h. The source holds these as a separate data set.
For data set [5], the target named is T1, Epidermal growth factor receptor (Homo sapiens, UniProt P00533). In words: Time-dependent irreversible inhibition of N-terminal GST-tagged wildtype human EGFR cytoplasmic domain (669 to 1210 residues) extracted from Sf21 insect cells assessed as apparent inactivation constant (Ki) incubated for 240 mins in presence of ATP by fluorescence based analysis. Conditions: read-out: Ki(app).

The target in data set [6] is T2, Epidermal growth factor receptor (Homo sapiens, UniProt P00533, L858R). In words: Time-dependent irreversible inhibition of GST-tagged EGFR L858R mutant cytoplasmic domain (669 to 1210 residues) (unknown origin) assessed as apparent inactivation constant (Ki) incubated for 240 mins in presence of ATP by fluorescence based analysis. Conditions: read-out: Ki(app).

The target in data set [7] is T3, Epidermal growth factor receptor (Homo sapiens, UniProt P00533, L858R/T790M). Briefly: Time-dependent irreversible inhibition of GST-tagged EGFR L858R/T790M mutant cytoplasmic domain (669 to 1210 residues) (unknown origin) assessed as apparent inactivation constant (Ki) incubated for 240 mins in presence of ATP by fluorescence based analysis. Conditions: read-out: Ki(app).

Data set [8] deals with BaF3. In kind it is functional, cell-based. To be noted: Mus musculus, BaF3, 72 h.
In data set [9] the target is T4, Epidermal growth factor receptor (Homo sapiens, UniProt P00533, C797S/L858R/T790M). Details: species or system Sf9.
A short description of data set [10]: Drug metabolism in pooled male human liver microsomes assessed as thioether oxidation mediated metabolite formation at 150 uM measured after 2 hrs by LC-MS analysis. It counts as ADME, Microsome.
Data set [11] is described as follows: Metabolic stability in pooled male human liver microsomes at 150 uM measured after 2 hrs in presence of NADPH regenerating system by LC-MS analysis. In kind it is ADME, Microsome. Background: Liver microsomes are vesicles of endoplasmic reticulum, rich in cytochrome P450 enzymes.
In data set [12] the target is T1, Epidermal growth factor receptor. Briefly: Reversible inhibition of wildtype EGFR (696 to 1022 residues) (unknown origin) extracted from baculovirus infected Sf9 insect cells in presence of ATP by HTRF assay. On the technique in general: TR-FRET usually uses a lanthanide donor and a delayed reading to cut background.
The target of data set [13] is T4, Epidermal growth factor receptor. Also noted: species or system Sf9. The source holds these as a separate data set.
Data set [14] has as its target T2, Epidermal growth factor receptor. In words: Reversible inhibition of EGFR L858R mutant (696 to 1022 residues) (unknown origin) extracted from baculovirus infected Sf9 insect cells in presence of ATP by HTRF assay.
In data set [15] the target is T3, Epidermal growth factor receptor. In words: Reversible inhibition of EGFR L858R/T790M mutant (696 to 1022 residues) (unknown origin) extracted from baculovirus infected Sf9 insect cells in presence of ATP by HTRF assay.

T4 sequence (P00533 25-1210 T790M/C797S/L858R limits assumed): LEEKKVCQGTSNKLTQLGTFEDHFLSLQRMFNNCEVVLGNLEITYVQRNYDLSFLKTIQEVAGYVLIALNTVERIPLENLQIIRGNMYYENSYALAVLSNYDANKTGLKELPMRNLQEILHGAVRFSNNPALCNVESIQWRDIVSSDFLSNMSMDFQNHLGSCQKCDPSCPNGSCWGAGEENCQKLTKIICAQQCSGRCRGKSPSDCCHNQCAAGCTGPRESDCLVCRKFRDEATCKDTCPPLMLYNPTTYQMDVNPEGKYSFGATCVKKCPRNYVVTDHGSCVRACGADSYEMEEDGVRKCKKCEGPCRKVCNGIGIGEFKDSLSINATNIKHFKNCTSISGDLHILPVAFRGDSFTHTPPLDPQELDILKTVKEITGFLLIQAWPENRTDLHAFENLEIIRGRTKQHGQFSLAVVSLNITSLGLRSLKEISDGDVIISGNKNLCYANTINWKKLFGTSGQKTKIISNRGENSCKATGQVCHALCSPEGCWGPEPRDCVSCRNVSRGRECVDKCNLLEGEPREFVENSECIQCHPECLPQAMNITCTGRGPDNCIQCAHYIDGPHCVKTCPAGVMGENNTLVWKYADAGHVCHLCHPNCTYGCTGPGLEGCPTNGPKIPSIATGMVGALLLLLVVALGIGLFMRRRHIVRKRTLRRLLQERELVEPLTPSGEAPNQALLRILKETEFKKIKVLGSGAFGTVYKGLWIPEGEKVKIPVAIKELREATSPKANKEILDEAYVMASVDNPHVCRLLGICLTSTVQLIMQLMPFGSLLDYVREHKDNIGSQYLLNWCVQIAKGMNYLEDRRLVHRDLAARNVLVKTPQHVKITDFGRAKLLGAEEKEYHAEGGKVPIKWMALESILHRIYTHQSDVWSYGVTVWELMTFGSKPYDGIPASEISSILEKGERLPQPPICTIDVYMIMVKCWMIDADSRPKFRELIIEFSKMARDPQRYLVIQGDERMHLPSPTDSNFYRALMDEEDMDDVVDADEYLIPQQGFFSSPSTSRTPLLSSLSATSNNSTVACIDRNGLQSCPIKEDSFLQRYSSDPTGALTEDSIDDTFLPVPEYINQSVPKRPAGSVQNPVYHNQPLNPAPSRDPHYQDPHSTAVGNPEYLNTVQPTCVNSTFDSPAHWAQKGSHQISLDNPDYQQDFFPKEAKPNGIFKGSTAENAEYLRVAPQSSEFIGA
T1 sequence (P00533 whole entry, the tested form may be a part): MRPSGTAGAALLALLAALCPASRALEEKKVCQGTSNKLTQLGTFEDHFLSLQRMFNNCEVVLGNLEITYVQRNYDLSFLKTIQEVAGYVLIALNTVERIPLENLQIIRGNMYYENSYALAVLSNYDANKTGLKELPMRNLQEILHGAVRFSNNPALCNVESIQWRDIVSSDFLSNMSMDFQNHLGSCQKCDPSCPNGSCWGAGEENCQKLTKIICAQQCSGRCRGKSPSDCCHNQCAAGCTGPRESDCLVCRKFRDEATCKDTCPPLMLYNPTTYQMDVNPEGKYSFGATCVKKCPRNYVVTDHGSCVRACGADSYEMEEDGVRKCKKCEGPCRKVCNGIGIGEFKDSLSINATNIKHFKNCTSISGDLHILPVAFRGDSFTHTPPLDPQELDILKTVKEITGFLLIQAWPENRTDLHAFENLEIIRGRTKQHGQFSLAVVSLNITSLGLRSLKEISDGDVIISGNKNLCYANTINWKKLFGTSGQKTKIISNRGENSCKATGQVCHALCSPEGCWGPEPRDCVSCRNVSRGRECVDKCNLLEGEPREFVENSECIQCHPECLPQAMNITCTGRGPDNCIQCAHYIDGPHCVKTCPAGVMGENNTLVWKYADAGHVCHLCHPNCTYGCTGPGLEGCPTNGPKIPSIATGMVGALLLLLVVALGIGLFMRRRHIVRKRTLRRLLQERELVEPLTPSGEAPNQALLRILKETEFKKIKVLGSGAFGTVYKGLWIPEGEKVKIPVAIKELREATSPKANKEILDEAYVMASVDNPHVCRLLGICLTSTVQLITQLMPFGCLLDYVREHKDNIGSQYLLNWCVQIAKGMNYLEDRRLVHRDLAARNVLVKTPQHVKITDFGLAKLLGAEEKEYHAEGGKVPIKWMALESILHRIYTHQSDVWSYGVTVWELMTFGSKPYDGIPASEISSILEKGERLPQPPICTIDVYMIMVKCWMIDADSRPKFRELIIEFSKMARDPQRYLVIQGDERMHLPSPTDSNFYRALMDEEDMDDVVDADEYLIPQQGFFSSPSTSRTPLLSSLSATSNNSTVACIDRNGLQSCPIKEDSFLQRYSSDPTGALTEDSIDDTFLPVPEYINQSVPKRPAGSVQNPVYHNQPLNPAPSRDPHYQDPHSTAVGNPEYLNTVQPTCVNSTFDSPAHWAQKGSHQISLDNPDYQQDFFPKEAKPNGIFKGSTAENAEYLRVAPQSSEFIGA
T2 sequence (P00533 25-1210 L858R limits assumed): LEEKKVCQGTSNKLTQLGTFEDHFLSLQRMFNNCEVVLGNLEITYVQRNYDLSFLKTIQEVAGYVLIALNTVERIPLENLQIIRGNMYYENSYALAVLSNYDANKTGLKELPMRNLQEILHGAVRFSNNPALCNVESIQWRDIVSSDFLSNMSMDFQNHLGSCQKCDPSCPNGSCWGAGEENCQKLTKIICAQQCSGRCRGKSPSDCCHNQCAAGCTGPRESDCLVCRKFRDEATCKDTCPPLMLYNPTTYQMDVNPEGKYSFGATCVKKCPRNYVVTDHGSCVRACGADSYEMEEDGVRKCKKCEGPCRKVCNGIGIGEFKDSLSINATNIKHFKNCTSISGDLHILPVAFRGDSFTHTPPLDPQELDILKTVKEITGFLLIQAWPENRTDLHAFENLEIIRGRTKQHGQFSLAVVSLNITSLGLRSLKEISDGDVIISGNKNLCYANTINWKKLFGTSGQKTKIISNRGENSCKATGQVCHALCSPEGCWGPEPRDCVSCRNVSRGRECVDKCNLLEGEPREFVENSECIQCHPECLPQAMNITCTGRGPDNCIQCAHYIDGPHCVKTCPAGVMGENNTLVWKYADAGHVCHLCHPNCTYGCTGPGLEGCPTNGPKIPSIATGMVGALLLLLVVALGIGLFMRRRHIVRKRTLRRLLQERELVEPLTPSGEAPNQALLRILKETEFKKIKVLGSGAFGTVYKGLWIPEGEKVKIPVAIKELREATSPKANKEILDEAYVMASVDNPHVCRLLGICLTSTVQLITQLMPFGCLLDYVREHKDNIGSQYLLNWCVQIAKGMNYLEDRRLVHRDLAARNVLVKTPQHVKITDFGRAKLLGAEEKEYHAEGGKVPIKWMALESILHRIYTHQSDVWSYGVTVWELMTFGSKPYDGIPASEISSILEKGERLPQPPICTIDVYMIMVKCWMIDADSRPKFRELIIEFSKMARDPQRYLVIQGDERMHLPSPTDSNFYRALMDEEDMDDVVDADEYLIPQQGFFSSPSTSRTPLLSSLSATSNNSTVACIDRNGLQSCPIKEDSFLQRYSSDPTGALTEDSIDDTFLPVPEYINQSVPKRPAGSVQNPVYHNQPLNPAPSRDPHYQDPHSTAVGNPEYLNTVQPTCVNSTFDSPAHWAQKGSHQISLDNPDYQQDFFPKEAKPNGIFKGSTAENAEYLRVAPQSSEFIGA
T3 sequence (P00533 25-1210 T790M/L858R limits assumed): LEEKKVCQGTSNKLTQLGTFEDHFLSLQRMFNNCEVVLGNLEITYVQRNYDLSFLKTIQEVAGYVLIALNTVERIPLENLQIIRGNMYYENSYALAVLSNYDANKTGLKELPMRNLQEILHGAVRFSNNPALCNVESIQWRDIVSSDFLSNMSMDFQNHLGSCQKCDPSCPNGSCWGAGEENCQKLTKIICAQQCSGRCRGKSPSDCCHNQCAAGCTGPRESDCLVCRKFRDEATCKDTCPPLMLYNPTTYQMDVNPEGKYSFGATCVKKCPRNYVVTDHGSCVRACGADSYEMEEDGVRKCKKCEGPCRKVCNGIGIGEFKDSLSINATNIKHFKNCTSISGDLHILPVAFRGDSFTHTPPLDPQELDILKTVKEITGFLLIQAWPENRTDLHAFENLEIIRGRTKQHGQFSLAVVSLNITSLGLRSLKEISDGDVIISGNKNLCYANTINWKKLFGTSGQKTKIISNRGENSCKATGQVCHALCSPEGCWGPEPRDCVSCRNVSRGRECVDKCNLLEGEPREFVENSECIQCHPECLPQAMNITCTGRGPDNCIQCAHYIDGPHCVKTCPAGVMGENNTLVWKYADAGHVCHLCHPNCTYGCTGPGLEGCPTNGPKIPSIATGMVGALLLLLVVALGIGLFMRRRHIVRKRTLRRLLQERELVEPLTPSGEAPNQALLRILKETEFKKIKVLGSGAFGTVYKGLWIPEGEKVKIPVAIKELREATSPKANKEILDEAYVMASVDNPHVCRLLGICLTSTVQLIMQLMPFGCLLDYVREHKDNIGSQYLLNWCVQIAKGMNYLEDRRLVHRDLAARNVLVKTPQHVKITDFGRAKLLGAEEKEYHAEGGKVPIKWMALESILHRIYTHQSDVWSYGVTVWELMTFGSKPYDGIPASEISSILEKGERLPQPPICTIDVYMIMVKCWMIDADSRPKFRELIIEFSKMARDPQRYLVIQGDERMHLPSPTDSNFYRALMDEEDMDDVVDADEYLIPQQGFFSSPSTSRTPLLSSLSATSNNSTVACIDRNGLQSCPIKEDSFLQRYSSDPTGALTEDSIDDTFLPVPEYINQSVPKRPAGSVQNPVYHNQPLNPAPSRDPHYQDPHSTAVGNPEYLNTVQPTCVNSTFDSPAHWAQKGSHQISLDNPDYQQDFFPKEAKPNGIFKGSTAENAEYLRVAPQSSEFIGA

`CS(=O)(=O)CCNCc1ccc(-c2ccc3ncnc(Nc4ccc(OCc5cccc(F)c5)c(Cl)c4)c3c2)o1` [LAPATINIB]: the EC50 in the data set “cells” and with HCC827 was > 10000 nM each time.
Regarding `CCc1nc(-c2cccc(NC(=O)c3cccc(O)c3CN3Cc4ccccc4C3=O)c2)c(-c2ccnc(NC(C)=O)c2)[nH]1`, the EC50 in the data set with BaF3 [1], with BaF3 [2], in the data set on BaF3 [3] and with BaF3 [4] was > 10000 nM each time.
With `C=CC(=O)Nc1ccc(OC)c(Nc2cc(-c3[nH]c(SC)nc3-c3cccc(NC(=O)c4ccccc4CN4Cc5ccccc5C4=O)c3)ccn2)c1`, the Ki in [5] worked out at 814 nM; in data set [6], 234 nM; in data set [7] it was 310 nM. Further, the 50% effective concentration (EC50) in the data set with BaF3 [1] was 1400 nM; with BaF3 [2] it was 880 nM; in the data set with BaF3 [3], 1700 nM; in the data set with BaF3 [8], > 10000 nM; in the data set on BaF3 [4], 170 nM. In addition, the IC50 in [9] is > 1000 nM.
On to `CCc1nc(-c2cccc(NC(=O)c3cccc(O)c3CN3Cc4ccccc4C3=O)c2)c(-c2ccnc(Nc3ccccc3)c2)[nH]1`, for which the EC50 in the data set with BaF3 [2] is > 10000 nM; in the data set on BaF3 [3], > 10000 nM; in the data set with BaF3 [8], > 10000 nM; in the data set with BaF3 [4], 3900 nM.
As to `CSc1nc(-c2cccc(NC(=O)c3cccc(O)c3CN3Cc4ccccc4C3=O)c2)c(-c2ccnc(NC(C)=O)c2)[nH]1`, the EC50 in the data set on BaF3 [1], with BaF3 [2], with BaF3 [3] and in the data set with BaF3 [4] was > 10000 nM throughout.
For the compound `C=CC(=O)Nc1ccc(OC)c(Nc2cc(-c3[nH]c(SC)nc3-c3cccc(NC(=O)c4c(F)cccc4CN4Cc5ccccc5C4=O)c3)ccn2)c1`, the EC50 is 530 nM with BaF3 [1]; 1100 nM with BaF3 [2]; 720 nM with BaF3 [3]; > 10000 nM with BaF3 [8]; 180 nM in the data set on BaF3 [4]. Moreover, the IC50 in data set [9] stood at 340 nM.
Consider `CSc1nc(-c2cccc(NC(=O)c3cccc(O)c3CN3Cc4ccccc4C3=O)c2)c(-c2ccnc(Nc3ccc(N4CCNCC4)cc3)c2)[nH]1`, for which the EC50 in the data set with BaF3 [1], with BaF3 [2], in the data set on BaF3 [3], in the data set with BaF3 [8] and with BaF3 [4] was > 10000 nM in each case.
For `C=CC(=O)Nc1ccc(OC)c(Nc2cc(-c3[nH]c(CC)nc3-c3cccc(NC(=O)c4cccc(O)c4CN4Cc5ccccc5C4=O)c3)ccn2)c1`, the EC50 in “cells” stood at 300 nM; in the data set on BaF3 [1] it was 1500 nM; with BaF3 [2], 590 nM; with HCC827 it was 290 nM; in the data set on BaF3 [3], 1000 nM; in the data set on BaF3 [8], 2100 nM. In the data set on BaF3 [4], this compound came in with a concentration giving a half-maximal response (EC50) of 220 nM. Moreover, the Drug metabolism result in data set [10] was “metabolite_notdetected”. For the same compound, the Stability result in data set [11] is “Stable”. Besides, in data set [9], the concentration for half-maximal inhibition (IC50) came to 0.91 nM.
`CCC(=O)Nc1ccc(OC)c(Nc2cc(-c3[nH]c(SC)nc3-c3cccc(NC(=O)c4cccc(O)c4CN4Cc5ccccc5C4=O)c3)ccn2)c1`: the EC50 in the data set on BaF3 [1] was 1800 nM; in the data set on BaF3 [2], > 10000 nM; with HCC827, 270 nM; in the data set on BaF3 [3] it was 1100 nM; in the data set on BaF3 [8], 1700 nM; with BaF3 [4] it was 1000 nM.
In the case of `C=CC(=O)Nc1ccc(OC)c(Nc2cc(-c3[nH]c(SC)nc3-c3cccc(NC(=O)c4c(F)ccc(O)c4CN4Cc5ccccc5C4=O)c3)ccn2)c1`, the EC50 with BaF3 [1] is 1400 nM; in the data set with BaF3 [2] it was 1200 nM; in the data set with BaF3 [3], 1100 nM; with BaF3 [8], > 10000 nM; in the data set on BaF3 [4] it was 370 nM. For the same compound, in [9], the IC50 was determined as 1.6 nM.
With `CSc1nc(-c2cccc(NC(=O)c3ccccc3CN3Cc4ccccc4C3=O)c2)c(-c2ccnc(NC(C)=O)c2)[nH]1`, the IC50 in [12] was > 1000 nM; in data set [13], 450 nM; in [14], 120 nM; in data set [15] it was 460 nM.
On to `CSc1nc(-c2cccc(NC(=O)c3cccc(O)c3CN3Cc4ccccc4C3=O)c2)c(-c2ccnc(Nc3ccccc3)c2)[nH]1`, for which the EC50 with BaF3 [1] was 4000 nM; in the data set with BaF3 [2], > 10000 nM; in the data set on BaF3 [3] it was > 10000 nM; in the data set on BaF3 [4], > 10000 nM.
Regarding `CCOc1nc(-c2cccc(NC(=O)c3cccc(O)c3CN3Cc4ccccc4C3=O)c2)c(-c2ccnc(NC(C)=O)c2)[nH]1`, the EC50 in the data set with BaF3 [1], with BaF3 [2], in the data set with BaF3 [3] and in the data set with BaF3 [4] was > 10000 nM in each case.
On to `CCOc1nc(-c2cccc(NC(=O)c3cccc(O)c3CN3Cc4ccccc4C3=O)c2)c(-c2ccnc(Nc3ccccc3)c2)[nH]1`, for which the EC50 is > 10000 nM in the data set on BaF3 [1], > 10000 nM with BaF3 [2], > 10000 nM with BaF3 [3] and 2900 nM with BaF3 [4].
